Measured values published in patent publication US20240197739A1 (Sanofi, priority 2021, published 2024).
Like-named read-outs stand apart in the source and are kept apart here.

Test system: subcutaneous MCF7-Y537S human breast cancer cell line xenograft
Conditions: for Tumor volume changes from baseline: Median / Regressions Complete / Regressions Partial / Median % of regressions on day 22 / Unscheduled death (Day of death): PO; for Tumor volume changes from baseline: Median: n = 7; for Anti-tumor effect on tumor growth (statistical significance versus control): two-way ANOVA, contrast analysis; for Regressions Complete: animals with complete regression / group of 7; for Regressions Complete / Regressions Partial / Unscheduled death (Day of death): 22 days; for Regressions Partial: animals with partial regression / group of 7; for ΔT/ΔC in % at day 22: ratio of median tumor volume changes from baseline, treated vs control; for ΔT/ΔC in % at day 22 / Median % of regressions on day 22 / Biological Interpretation: day 22; for Biological Interpretation: based on ΔT/ΔC and statistical analysis; for Unscheduled death (Day of death): deaths / group of 7
Experimental: Anti-tumor efficacy was evaluated by tumor volume measurement.
Female BALB/c nude mice were obtained from Shanghai Sino-British SIPPR/BK Laboratory Animal Co., LTD (Shanghai, CHINA). Animals were allowed to acclimate for at least four days before the study enrollment. Mice were 6 to 8 weeks old and weighed between 18 and 24 grams at the beginning of the treatments. These animals were housed under conditions outlined in the guidelines approved by the Institutional Animal Care and Use Committee (IACUC) of WuXi AppTec following the guidance of the Association for Assessment and Accreditation of Laboratory Animal Care (AAALAC).
Parental MCF7 cells were obtained from the American Type Culture Collection (ATCC® HTB-22™). MCF7-Y537S (ESR1) cell line was MCF7 cells expressing the ER. Y537S variant that was generated by Sanofi Biology Discovery Group. Y537S mutation was introduced in ESR1 construct (GenBank NM_000125.3) by site directed mutagenesis (Toy W. et al., Cancer Discovery, 2017, 7, 277-287). The construct was transfected in MCF7 cells, which were selected for their growth in absence of estradiol. MCF-Y537S is an ESR1 mutation that confers estrogen-independent activity to ERα(Estrogen Receptor alpha) and contributes to endocrine resistant disease (Robinson D.R. et al., Nat Genet., 2013, 45 (12), 1446-1451). The cells were grown in Eagle's Minimum Essential Medium (EMEM) supplemented with 10% fetal bovine serum (FBS), human Insulin, in 5% CO2 at 37° C. The cells were harvested in 0.25% Trypsin EDTA and washed by Phosphate Buffered Saline (PBS) and re-suspended in PBS with 75% Matrigel. The cells (20×10^6 cells/per mouse) were subcutaneously (SC) implanted into the right flank of female nude mice.
When the MCF7-Y537S tumors were established, the tumors were reserved as tumor stocks for fragment implantation. The tumors were serially propagated through fragment tissue transplantation subcutaneously. The fragment tumor tissues were subcutaneously implanted into the right flank of female nude mice. Twenty-eight mice were assigned in this experiment.
The animals required for experiment (plus extra) were pooled and implanted with MCF7-Y537S tumor fragment tissues. […] Animal body weight was assessed daily.
The dosages are expressed in mg/kg and based on daily body weight per animal. Vehicle treated animals were used as controls. Mice were checked daily for adverse clinical reactions. Individual mice were weighed daily until the end of the experiment. Mice would be euthanized when morbid or weight loss ≥20% was observed. Tumors were measured with a caliper twice weekly until final sacrifice. When a tumor size reached approximately 2000 mm^3 or when there are animal health issues (40% area of a tumor ulcerated), animals were euthanized, and date of death recorded. Solid tumor volumes were estimated from two-dimensional tumor measurements and calculated according to the following equation: […]
A dosage producing either 15% body weight loss during 3 consecutive days for an individual mouse, 20% body weight loss during 1 day, or 10% or more drug related deaths, was considered an excessively toxic dosage, unless under certain circumstances bodyweight loss or animal death can be considered non-drug related. […] Animal body weight included the tumor weight.
The primary efficacy end points include tumor volume changes from baseline summarized by the ratio of medians of tumor volume changes from baseline between the treated and control groups (ΔT/ΔC). Changes in tumor volume for each treated (T) and control (C) group were calculated for each animal on each day by subtracting the tumor volume on the day of first treatment (staging day) from the tumor volume on the specified observation day.

[1] = Day 4, amcenestrant 20 mg/kg BID, ribociclib 100 mg/kg QD
[2] = Day 8, amcenestrant 20 mg/kg BID, ribociclib 100 mg/kg QD
[3] = Day 11, amcenestrant 20 mg/kg BID, ribociclib 100 mg/kg QD
[4] = Day 15, amcenestrant 20 mg/kg BID, ribociclib 100 mg/kg QD
[5] = Day 22, amcenestrant 20 mg/kg BID, ribociclib 100 mg/kg QD
[6] = amcenestrant 20 mg/kg BID, ribociclib 100 mg/kg QD, PO for 22 days
[7] = amcenestrant 20 mg/kg BID, ribociclib 100 mg/kg QD
[8] = PO for 22 days, amcenestrant 20 mg/kg BID, ribociclib 100 mg/kg QD

SMILES	Tumor volume changes from baseline: Median [1]	Tumor volume changes from baseline: Median [2]	Tumor volume changes from baseline: Median [3]	Tumor volume changes from baseline: Median [4]	Tumor volume changes from baseline: Median (Day 18, amcenestrant 20 mg/kg BID, ribociclib 100 mg/kg QD)	Tumor volume changes from baseline: Median [5]	Anti-tumor effect on tumor growth (statistical significance versus control) [6]	Regressions Complete [7]	Regressions Partial [7]	ΔT/ΔC in % at day 22 [8]	Median % of regressions on day 22 [7]	Biological Interpretation	Unscheduled death (Day of death) [7]	Body weight loss [6]	Tolerability [6]
O=C(O)c1ccc2c(c1)CCCC(c1ccc(Cl)cc1Cl)=C2c1ccc(O[C@H]2CCN(CCCF)C2)cc1 [SAR439859, 6-(2,4-dichlorophenyl)-5-[4-[(3S)-1-(3-fluoropropyl)pyrrolidin-3-yl]oxyphenyl]-8,9-dihydro-7H-benzo[7]annulene-2-carboxylic acid]	43.0 mm^3	121.0 mm^3	214.0 mm^3	360.0 mm^3	392.0 mm^3	501.0 mm^3	no statistically significant anti-tumor effect	0/7	0/7	47%	0%	Inactive*	0/7	–	–
CN(C)C(=O)c1cc2cnc(Nc3ccc(N4CCNCC4)cn3)nc2n1C1CCCC1.O=C(O)CCC(=O)O [ribociclib, 7-cyclopentyl-N,N-dimethyl-2-[[5-(1-piperazinyl)-2-pyridinyl]amino]-7H-pyrrolo[2,3-d]pyrimidine-6-carboxamide]	44.0 mm^3	103.0 mm^3	183.0 mm^3	292.0 mm^3	–	423.0 mm^3	no statistically significant anti-tumor efficacy	0/7	0/7	40%	0%	Inactive*	0/7	no significant body weight loss	well-tolerated
